Test results reported in patent publication US20230322785A1, “ADENOSINE A2A AND A2B RECEPTOR DUAL ANTAGONISTS FOR IMMUNO-ONCOLOGY” (Merck Sharp & Dohme LLC, priority 2020, published 2023).

Columns and labels:
[1] = target: T1, human A2A adenosine receptor (Homo sapiens, UniProt P29274); assay: A2A binding affinity, Method (A): radioligand filtration binding with [3H]SCH58261; conditions: membranes of HEK293 or CHO cells expressing the human receptor
T1 construct: expressed in transfected cells; host or cells: HEK293 or CHO cells
T1 sequence (P29274 whole entry): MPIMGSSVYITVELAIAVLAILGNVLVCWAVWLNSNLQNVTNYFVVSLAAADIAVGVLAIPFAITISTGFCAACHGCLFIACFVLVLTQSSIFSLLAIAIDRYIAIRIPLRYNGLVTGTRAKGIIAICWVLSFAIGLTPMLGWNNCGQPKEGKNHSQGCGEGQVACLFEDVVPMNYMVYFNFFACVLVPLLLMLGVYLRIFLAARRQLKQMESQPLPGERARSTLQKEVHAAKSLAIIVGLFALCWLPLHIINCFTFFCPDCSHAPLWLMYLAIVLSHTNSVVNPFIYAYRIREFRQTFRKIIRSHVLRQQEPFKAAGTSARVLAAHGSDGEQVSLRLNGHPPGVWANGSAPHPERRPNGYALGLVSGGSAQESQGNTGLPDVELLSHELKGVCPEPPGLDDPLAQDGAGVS
Source text: (§1) Method (A) describes the procedure used to measure A2A binding affinity using radioligand binding. Method (B) describes the procedure used to measure A2A binding affinity using SPA technology. The method used to measure A2B binding affinity is also described below. The method used to determine the A2A IC50 value reported for each compound in the table is indicated next to the reported value. The A2B IC50 value measured using the A2B binding affinity assay is shown in the table next to the compound under the corresponding A2A value.
The A2A receptor affinity binding assay measured the amount of binding of a tritiated ligand with high affinity for the A2A adenosine receptor to membranes made from HEK293 or CHO cells recombinantly expressing the human A2A adenosine receptor, in the presence of varying concentrations of a compound of the invention. The data were generated using either filtration binding or a homogenous scintillation proximity assay (SPA).
Method (A): Measurement of A2A Binding Affinity Using Radioligand Binding
148 µL (5 µg/mL) membranes (Perkin Elmer, Cat. No. RBHA2aM400UA) and 2 µL compounds of the invention to be tested (test compound) were transferred to individual wells of a 96-well polypropylene assay plate and incubated for 15 to 30 min at room temperature. [^3H] SCH58261 ((7-(2-phenylethyl)-5-amino-2-(2-furyl)-pyrazolo-[4,3-e]-1,2,4-triazolo[1,5-c]pyrimidine)) was diluted in assay buffer (50 mM Tris pH 7.4, 10 mM MgCl2, 0.005% Tween20) to a concentration of 4 nM and 50 µL transferred to each well of the assay plate. To define total and non-specific binding, wells containing 1% DMSO and 1 µM ZM241385 (Tocris Bioscience, Cat. No. 1036) respectively, were also included. The assay plate was incubated at room temperature for 60 min with agitation. Using a FilterMate Harvester® (Perkin Elmer), the contents of the assay plate were filtered through a UniFilter-96® PEI coated plate (Perkin Elmer Cat. No. 6005274 or 6005277). Filtering was achieved by aspirating the contents of the assay plate for 5 sec, then washing and aspirating the contents three times with ice-cooled wash buffer (50 mM Tris-HCl pH 7.4, 150 mM NaCl) and allowing the vacuum manifold to dry the plate for 30 sec. The filter plate was incubated for at least 1 h at 55° C. and allowed to dry. The bottom of the filter plate was sealed with backing tape. 40 µL Ultima Gold™ (Perkin Elmer, Cat. No. 6013329) was added to each well of the filter plate and the top of the plate was sealed with TopSeal-A PLUS® clear plate seal (Perkin Elmer, Cat. No. 6050185). The plate was incubated for at least 20 min, and then the amount of radioactivity remaining in each well was determined using a TopCount® (Perkin Elmer) scintillation counter. After normalization to total and non-specific binding, the percent effect at each compound concentration was calculated. The plot of percent effect versus the log of compound concentration was analyzed electronically using a 4-parameter logistic fit based on the Levenberg-Marquardt algorithm to generate IC50 values.

[2] = target: T2, human A2B adenosine receptor (Homo sapiens, UniProt P29275); assay: A2B binding affinity, radioligand filtration binding assay; conditions: membranes of HEK293 cells expressing human A2B
T2 construct: purchased Perkin Elmer ES-013-C; host or cells: HEK293 cells
T2 sequence (P29275 1-332): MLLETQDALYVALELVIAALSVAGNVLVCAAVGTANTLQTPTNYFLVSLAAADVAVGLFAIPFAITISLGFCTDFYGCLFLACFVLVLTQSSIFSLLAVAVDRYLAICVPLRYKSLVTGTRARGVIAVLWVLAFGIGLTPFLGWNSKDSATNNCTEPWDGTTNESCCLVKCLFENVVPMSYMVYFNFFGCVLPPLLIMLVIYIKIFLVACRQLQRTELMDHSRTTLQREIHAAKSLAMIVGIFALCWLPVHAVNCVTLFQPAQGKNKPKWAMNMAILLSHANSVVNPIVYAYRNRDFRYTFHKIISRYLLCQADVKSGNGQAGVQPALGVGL
Source text: as §1
Measurement of A2B Binding Affinity
The reported affinity of the compounds of the invention for the human A2B adenosine receptor was determined experimentally using a radioligand filtration binding assay. This assay measures the amount of binding of a tritiated proprietary A2B receptor antagonist, in the presence and absence of a compound of the invention, to membranes made from HEK293 cells recombinantly expressing the human A2B adenosine receptor (Perkin Elmer, Cat. No. ES-013-C). […] 148 µL (135 µg/mL) membranes and 2 µL test compounds were transferred to individual wells of a 96-well polypropylene assay plate and incubated for 15 to 30 min at room temperature with agitation. Tritiated radioligand was diluted to a concentration of 14 nM in assay buffer (phosphate buffered saline without Magnesium and Calcium, pH 7.4; GE Healthcare Life Sciences, Cat. No. SH30256.01) and then 50 µL of the solution were transferred to each well of the assay plate. To define total and non-specific binding, wells containing 1% DMSO and 20 µM N-ethylcarboxamidoadenosine (Tocris Bioscience, Cat. No. 1691) respectively, were also included. The wells of the assay plate were incubated at room temperature for 60 min with agitation, then filtered using a FilterMate Harvester® (Perkin Elmer) or similar equipment through a UniFilter-96® PEI coated plate (Perkin Elmer Cat. No. 6005274 or 6005277). Filtering was achieved by aspirating the contents of the assay plate for 5 sec, then washing and aspirating the contents three times with ice-cooled wash buffer (assay buffer supplemented with 0.0025% Brij58) and allowing the vacuum manifold to dry the plate for 30 sec. The filter plate was incubated for at least 1 h at 55° C. and allowed to dry. The bottom of the filter plate was then sealed with backing tape. 40 µL Ultima Gold™ (Perkin Elmer, Cat. No. 6013329) was added to each well of the filter plate and the top of the plate was sealed with TopSeal-A PLUS® clear plate seal (Perkin Elmer, Cat. No. 6050185). The plates were then incubated for at least 20 min, and then the amount of radioactivity remaining in each well was determined using a TopCount® (Perkin Elmer) scintillation counter. After normalization to total and non-specific binding, the percent effect at each compound concentration was calculated. The plot of percent effect versus the log of compound concentration was analyzed electronically using a 4-parameter logistic fit based on the Levenberg-Marquardt algorithm to generate IC50 values.

Compound | IC50 [1] | IC50 ([2]; value given with mark (A)) | IC50 ([2]; value printed with mark (B))
COc1cc(F)cc2c1nc(N)n1nc(CNCc3ccc(C(O)(C(F)F)C(F)F)cc3)nc21 [Example 11.6, 2-(4-((((5-amino-9-fluoro-7-methoxy-[1,2,4]triazolo[1,5-c]quinazolin-2-yl)methyl)amino)methyl)phenyl)-1,1,3,3-tetrafluoropropan-2-ol] | 0.3 nM | 3.7 nM | 
COc1cc(F)cc2c1nc(N)n1nc(CNCc3ccc(C(O)C(F)(F)F)cc3)nc21 (single isomer, unassigned) [Example 11.7B, (R or S)-1-(4-((((5-amino-9-fluoro-7-methoxy-[1,2,4]triazolo[1,5-c]quinazolin-2-yl)methyl)amino)methyl)phenyl)-2,2,2-trifluoroethan-1-ol] | 0.5 nM | 14.7 nM | 
COc1cc(F)cc2c1nc(N)n1nc(CNCc3ccc(C(O)(C(F)(F)F)C(F)(F)F)cc3)nc21 [Example 11.5, 2-(4-((((5-amino-9-fluoro-7-methoxy-[1,2,4]triazolo[1,5-c]quinazolin-2-yl)methyl)amino)methyl)phenyl)-1,1,1,3,3,3-hexafluoropropan-2-ol] | 0.2 nM | 1 nM | 
COc1cc(F)cc2c1nc(N)n1nc(CNCc3ccc(C(O)C(F)(F)F)cc3)nc21 (single isomer, unassigned) [Example 11.7A, (S or R)-1-(4-((((5-amino-9-fluoro-7-methoxy-[1,2,4]triazolo[1,5-c]quinazolin-2-yl)methyl)amino)methyl)phenyl)-2,2,2-trifluoroethan-1-ol] | 0.5 nM | 21.2 nM | 
COc1cccc2c1nc(N)n1nc(CNCc3cnn(C)c3)nc21 [Example 11.3, 7-methoxy-2-((((1-methyl-1H-pyrazol-4-yl)methyl)amino)methyl)-[1,2,4]triazolo[1,5-c]quinazolin-5-amine] | 0.1 nM |  | 1040 nM
COc1cc(F)cc2c1nc(N)n1nc(CNCc3ccc(C(C)(C)O)cc3)nc21 [Example 11.4, 2-(4-((((5-amino-9-fluoro-7-methoxy-[1,2,4]triazolo[1,5-c]quinazolin-2-yl)methyl)amino)methyl)phenyl)propan-2-ol] | 0.1 nM |  | 2.9 nM

Other lines, results leading:

IC50 [1] | IC50 ([2]; value given with mark (A)) | IC50 ([2]; value printed with mark (B)) | Compound
0.6 nM | 116 nM |  | COc1cccc2c1nc(N)n1nc(CNS(=O)(=O)C3CC3)nc21 [Example 12.2, N-((5-amino-7-methoxy-[1,2,4]triazolo[1,5-c]quinazolin-2-yl)methyl)cyclopropanesulfonamide]
0.4 nM | 2.9 nM |  | COc1cc(F)cc2c1nc(N)n1nc(CNCc3ccc(C(C)(O)C(F)(F)F)cc3)nc21 (single isomer, unassigned) [Example 11.8B, (R or S)-2-(4-((((5-amino-9-fluoro-7-methoxy-[1,2,4]triazolo[1,5-c]quinazolin-2-yl)methyl)amino)methyl)phenyl)-1,1,1-trifluoropropan-2-ol]
2.1 nM | 15.6 nM |  | COc1cc(F)cc2c1nc(N)n1nc(CNCc3ccc(S(N)(=O)=O)cc3)nc21 [Example 11.11, 4-((((5-amino-9-fluoro-7-methoxy-[1,2,4]triazolo[1,5-c]quinazolin-2-yl)methyl)amino)methyl)benzenesulfonamide]
0.8 nM | 11.3 nM |  | COc1cc(F)cc2c1nc(N)n1nc(CNCc3ccc(C(C)(O)C(F)(F)F)cc3)nc21 (single isomer, unassigned) [Example 11.8A, (S or R)-2-(4-((((5-amino-9-fluoro-7-methoxy-[1,2,4]triazolo[1,5-c]quinazolin-2-yl)methyl)amino)methyl)phenyl)-1,1,1-trifluoropropan-2-ol]
